In patent publication US9192662B2, “Methods using immunomodulatory compounds for modulating level of CD59” (Celgene Corporation, priority 2008, dated 2015):

What was measured:
[1] = tested on: CD59 mRNA; test: CD59 mRNA levels in several in vitro cellular models in Affymetrix gene array experiments; format: cell-based; conditions: primary T cells, primary monocytes, NK cells, cultured PBMCs from normal and CLL patients, Namalwa Burkitt's lymphoma cell line
Excerpt: In certain embodiments, the immunomodulatory compounds provided herein, such as 3-(4-amino-1-oxo-1,3-dihydro-isoindol-2-yl-piperidine-2,6-dione (lenalidomide), 4-amino-2-(2,6-dioxopiperidin-3-yl)isoindoline-1,3-dione or N-{[2-(2,6-dioxo(3-piperidyl)-1,3-dioxoisoindolin-4-yl]methyl}cyclopropyl-carboxamide, induce increase in the mRNA levels of CD59 in several in vitro cellular models in Affymetrix gene array experiments (both primary cells and cell lines). In certain aspects, this increase is found in primary T cells, primary monocytes, NK cells, cultured PBMCs from normal and CLL patients, and the Namalwa Burkitt's lymphoma cell line.
Namalwa cells are cultured in RPM1 supplemented with 10% fetal bovine serum. Cells are treated with vehicle control (0.1% DMSO) or 4-amino-2-(2,6-dioxopiperidin-3-yl)isoindoline-1,3-dione (10 μM) or lenalidomide (10 μM) for 8 hours and 24 hours. Cells are harvested and RNA isolated as described above. Methods for Affymetrix gene array analysis are as described above.
PBMCs are isolated from whole blood from CLL patients (MD Anderson) using ficoll gradient centrifugation. Cells are treated with 4-amino-2-(2,6-dioxopiperidin-3-yl)isoindoline-1,3-dione (1 μM), lenalidomide (10 μM) or N-{[2-(2,6-dioxo(3-piperidyl)-1,3-dioxoisoindolin-4-yl]methyl}cyclopropyl-carboxamide (10 μM) for 24 and 48 hours. Samples from five CLL patients are analyzed individually. Cells are harvested and RNA isolated as described above. Methods for Affymetrix gene array analysis are as described above.

[2] = tested on: CD59 mRNA; test: CD59 mRNA levels in unstimulated monocytes (Affymetrix gene array); format: cell-based, Human; conditions: CD14+ monocytes from healthy volunteers, after treatment with 10 nM or more, FIG. 2
Method: Human PBMCs were isolated from buffy coat from three healthy volunteers using ficoll gradient centrifugation. CD14+ monocytes were isolated from each batch of PBMCs using anti-CD14 microbeads (Miltenyi). Cells were treated with 0.1% DMSO or 4-amino-2-(2,6-dioxopiperidin-3-yl)isoindoline-1,3-dione (1 μM) 1 or lenalidomide (10 μM) for 30 minutes. Thereafter the cells were either left unstimulated or stimulated with 100 ng/ml LPS and incubated for 6 hours. After the incubation period the cells were lysed in TRI reagent (Sigma) for RNA isolation. The RNAs isolated using the TRI reagent RNA isolation protocol, were column cleaned (Qiagen) and the RNAs kept separate from the donors, were pooled for cDNA synthesis. Briefly, double-stranded cDNA will be synthesized using 2-5 μg of total RNA. Biotin-labeled cRNA will be synthesized using MessageAmp aRNA kit (Ambion), 15 μg of cRNA fragmented and hybridized to each Affymetrix human UI 33A array. The above procedures will be done twice for each RNA sample to obtain replicate biotin-labeled probes. Data analysis was performed using GeneSpring (Agilent).

[3] = tested on: CD59 mRNA; test: CD59 mRNA levels in PBMCs (Affymetrix gene array); format: cell-based, Human; conditions: PBMCs from healthy volunteers; 24, 48 and 72 hours; lenalidomide 10 μM, CC-4047 1 μM; FIG. 1
Method: Human PBMCs were isolated from buffy coat from healthy volunteers using ficoll gradient centrifugation. PBMCs were treated with 4-amino-2-(2,6-dioxopiperidin-3-yl)isoindoline-1,3-dione (1 μM) or lenalidomide (10 μM) or vehicle control (0.1% DMSO) for 24 hours, 48 hours, and 72 hours. Cells were harvested and RNA isolated as above. Methods for Affymetrix gene array analysis were as described above.

[4] = tested on: CD59 mRNA; test: CD59 mRNA levels in alpha-CD3/CD28 stimulated T cells (Affymetrix gene array); format: cell-based, Human; conditions: CD4+ T cells, anti-CD3/anti-CD28 stimulation; 3, 6, 12 and 24 hours; lenalidomide 10 μM, CC-4047 1 μM; FIG. 3
Method: Human PBMCs were isolated from buffy coat from four healthy volunteers using ficoll gradient centrifugation CD4+ T cells were isolated from each batch of PBMCs using anti-CD4 microbeads (Miltenyi). Cells were treated with 0.1% DMSO or 4-amino-2-(2,6-dioxopiperidin-3-yl)isoindoline-1,3-dione (1 μM) 1 or lenalidomide (10 μM) in the presence or absence of anti-CD3/anti-CD28 stimulation over a time course which included 3, 6, 12 and 24 hours of treatment. Cells were harvested at indicated times and RNA isolated as described above. Methods for Affymetrix gene array analysis were as described above.

Nc1cccc2c1C(=O)N(C1CCC(=O)NC1=O)C2=O (stereo not drawn) [CC-4047, 4-amino-2-(2,6-dioxopiperidin-3-yl)isoindoline-1,3-dione]
increase: mRNA levels of CD59 in several in vitro cellular models [1] | CD59 mRNA levels in unstimulated monocytes [2] | CD59 mRNA levels in PBMC cells [3] | CD59 mRNA levels in α-cd3/cd28 stimulated T cells [4]

O=C1CCC(N2C(=O)c3cccc(CNC(=O)C4CC4)c3C2=O)C(=O)N1 (stereo not drawn) [N-{[2-(2,6-dioxo(3-piperidyl)-1,3-dioxoisoindolin-4-yl]methyl}cyclopropyl-carboxamide]
increase: mRNA levels of CD59 in several in vitro cellular models [1]

Nc1cccc2c1CN(C1CCC(=O)NC1=O)C2=O (stereo not drawn) [lenalidomide, 3-(4-amino-1-oxo-1,3-dihydro-isoindol-2-yl)-piperidine-2,6-dione]
increase: mRNA levels of CD59 in several in vitro cellular models [1] | CD59 mRNA levels in unstimulated monocytes [2] | CD59 mRNA levels in PBMC cells [3] | CD59 mRNA levels in α-cd3/cd28 stimulated T cells [4]
